{
  "source": "patent US20100248390A1",
  "about": "“COMPOSITIONS AND METHODS FOR IDENTIFYING LIGANDS OF ODORANT RECEPTORS” (DUKE UNIVERSITY, priority 2009, published 2010)",
  "key": {"[1]": {"biological_target": "T1, human odorant receptors (ORs) (Homo sapiens, UniProt Q9P1Q5)", "T1 construct": "OR open reading frames were amplified from genomic DNA; expressed in transfected cells; host or cells: Hana3A cells, co-transfected with RTP1S, CRE-luciferase and pRL-SV40", "T1 sequence (Q9P1Q5 1-309)": "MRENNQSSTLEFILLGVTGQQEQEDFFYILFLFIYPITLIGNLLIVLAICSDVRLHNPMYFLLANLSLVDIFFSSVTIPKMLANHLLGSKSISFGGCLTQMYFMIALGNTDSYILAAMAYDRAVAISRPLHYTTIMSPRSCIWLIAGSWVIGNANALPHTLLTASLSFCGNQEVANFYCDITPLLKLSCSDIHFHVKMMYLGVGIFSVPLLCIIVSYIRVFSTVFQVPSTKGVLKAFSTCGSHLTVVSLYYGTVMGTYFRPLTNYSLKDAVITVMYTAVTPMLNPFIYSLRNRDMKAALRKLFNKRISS", "experiment": "CRE-luciferase assay of odorant receptor activation (Dual-Glo, Hana3A cells, RTP1S), dose-response EC50", "type": "cell-based", "procedure,_shortened": "(§1)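 Hana3A cells were co-transfected with Rho-tagged OR, RTP1S, CRE-luciferase and pRL-SV40, then exposed to odorant in CD293 medium for 4 hrs at 37° C. Firefly luminescence was divided by Renilla and normalized as (LN−Lmin)/(Lmax−Lmin) per plate set. Each dose was tested at least three times, and EC50 came from sigmoidal fits.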"}, "[2]": {"biological_target": "T2, human odorant receptors (ORs) (Homo sapiens, UniProt Q9Y3N9)", "T2 construct": "OR open reading frames were amplified from genomic DNA; expressed in transfected cells; host or cells: Hana3A cells, co-transfected with RTP1S, CRE-luciferase and pRL-SV40", "T2 sequence (Q9Y3N9 1-320)": "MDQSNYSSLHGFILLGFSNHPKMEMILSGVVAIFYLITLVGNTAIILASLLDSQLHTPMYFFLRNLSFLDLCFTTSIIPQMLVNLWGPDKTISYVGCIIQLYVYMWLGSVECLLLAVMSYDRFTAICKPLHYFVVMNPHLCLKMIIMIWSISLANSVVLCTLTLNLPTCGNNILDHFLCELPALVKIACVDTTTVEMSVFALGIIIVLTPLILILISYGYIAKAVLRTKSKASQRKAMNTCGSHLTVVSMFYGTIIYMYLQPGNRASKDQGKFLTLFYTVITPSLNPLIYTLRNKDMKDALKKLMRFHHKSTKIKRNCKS", "experiment": "CRE-luciferase assay of odorant receptor activation (Dual-Glo, Hana3A cells, RTP1S), dose-response EC50", "type": "cell-based", "procedure,_shortened": "as §1"}, "[3]": {"details": "receptor OR1A1, 0 = no response, read-out: log EC50, OR1A1 (converted)"}, "[4]": {"details": "receptor OR2W1, 0 = no response, read-out: log EC50, OR2W1 (converted)"}, "[5]": {"details": "receptor OR1A1, 0 = no response"}, "[6]": {"details": "receptor OR2W1, 0 = no response"}, "[7]": {"details": "receptor OR2W1, read-out: log EC50 of odorant at OR2W1 (0 = no response) (converted)"}, "[8]": {"details": "receptor OR1A1, read-out: log EC50 (Table 4 value), OR1A1 (converted)"}, "[9]": {"details": "receptor OR2W1, read-out: log EC50 (Table 4 value), OR2W1 (converted)"}, "[10]": {"details": "receptor OR1A1, read-out: log EC50 of odorant at OR1A1 (0 = no response) (converted)"}},
  "note": "Read-outs that look alike come from different tables or passages of the source.",
  "data": [
    {"smiles": "CC(C)=CCCC(C)CCO", "note": "(single isomer, unassigned; (-)) [(−)-b-C ? inedol]", "values": [
      {"measurement": "EC50", "setting": "[1]; [3]", "value": 91.4, "unit": "µM"},
      {"measurement": "EC50", "setting": "[2]; [4]", "value": 7.8, "unit": "µM"}
    ]},
    {"smiles": "C=C(C)[C@@H]1CC[C@@H](C)C(=O)C1", "note": "[(+)-Dihydrocarvone]", "values": [
      {"measurement": "log EC50, OR1A1", "setting": "[1]; [5]", "value": "−4.992"},
      {"measurement": "log EC50, OR2W1", "setting": "[2]; [6]", "value": "−4.755"}
    ]},
    {"smiles": "CCCCCCCCCCO", "note": "[1-Decanol]", "values": [
      {"measurement": "EC50", "setting": "[1]", "value": 828, "unit": "µM"},
      {"measurement": "EC50", "setting": "[2]", "value": 43.2, "unit": "µM"}
    ]},
    {"smiles": "C=C(C)[C@H]1CC=C(C)C(=O)C1", "note": "[(+)-Carvone]", "values": [
      {"measurement": "log EC50, OR1A1", "setting": "[1]; [5]", "value": "−5.035"},
      {"measurement": "log EC50, OR2W1", "setting": "[2]; [6]", "value": "−4.646"}
    ]},
    {"smiles": "CCCCCCCO", "note": "[1-Heptanol]", "values": [
      {"measurement": "EC50", "setting": "[1]; [3]", "value": 971, "unit": "µM"},
      {"measurement": "EC50", "setting": "[2]; [4]", "value": 14.8, "unit": "µM"}
    ]},
    {"smiles": "CCCCCCCC(=O)O", "note": "[Octanoic Acid]", "values": [
      {"measurement": "EC50", "setting": "[2]; [7]", "value": 14.2, "unit": "µM"}
    ]},
    {"smiles": "C=CCOC(=O)Cc1ccccc1", "note": "[Allyl phenylacetate]", "values": [
      {"measurement": "EC50", "setting": "[1]", "value": 7.6, "unit": "µM"},
      {"measurement": "EC50", "setting": "[2]", "value": 15.4, "unit": "µM"}
    ]},
    {"smiles": "CC(C)=CCC/C(C)=C/CO", "note": "[Getaniol]", "values": [
      {"measurement": "EC50", "setting": "[1]; [8]", "value": 341, "unit": "µM"},
      {"measurement": "EC50", "setting": "[2]; [9]", "value": 18.4, "unit": "µM"}
    ]},
    {"smiles": "CC(=O)Oc1ccccc1", "note": "[Phenyl acetate]", "values": [
      {"measurement": "EC50", "setting": "[2]; [7]", "value": 84.9, "unit": "µM"}
    ]},
    {"smiles": "O=c1ccc2ccccc2o1", "note": "[Coumarin]", "values": [
      {"measurement": "EC50", "setting": "[2]; [9]", "value": 86.1, "unit": "µM"}
    ]},
    {"smiles": "CCCCCC1=C(C)CCC1=O", "note": "[Dihydroiasmone]", "values": [
      {"measurement": "log EC50 (Table 4 value), OR1A1", "setting": "[1]; receptor OR1A1", "value": "−7.242"},
      {"measurement": "log EC50 (Table 4 value), OR2W1", "setting": "[2]; receptor OR2W1", "value": "−4.246"}
    ]},
    {"smiles": "CCCCCCCCCS", "note": "[Nonanethiol]", "values": [
      {"measurement": "EC50", "setting": "[1]; [10]", "value": 571, "unit": "µM"},
      {"measurement": "EC50", "setting": "[2]; [7]", "value": 86.1, "unit": "µM"}
    ]},
    {"smiles": "CC(=O)OCc1ccccc1", "note": "[Benzyl acetate]", "values": [
      {"measurement": "EC50", "setting": "[1]; [8]", "value": 406, "unit": "µM"},
      {"measurement": "EC50", "setting": "[2]; [9]", "value": 16.4, "unit": "µM"}
    ]},
    {"smiles": "CCCCCCCCC(=O)O", "note": "[Nonanoic acid]", "values": [
      {"measurement": "EC50", "setting": "[2]; [7]", "value": 189, "unit": "µM"}
    ]},
    {"smiles": "CC(=O)c1ccccc1", "note": "[Acetophenone]", "values": [
      {"measurement": "EC50", "setting": "[2]; [9]", "value": 42.5, "unit": "µM"}
    ]},
    {"smiles": "O=C1CCOc2ccccc21", "note": "[4-Chromanone]", "values": [
      {"measurement": "EC50", "setting": "[1]; [8]", "value": 462, "unit": "µM"},
      {"measurement": "EC50", "setting": "[2]; [9]", "value": 91, "unit": "µM"}
    ]},
    {"smiles": "C=C(C)C1CC=C(C)C(=O)C1", "note": "(single isomer, unassigned; (-)) [(−)-Carvone]", "values": [
      {"measurement": "log EC50, OR1A1", "setting": "[1]; [5]", "value": "−5.765"},
      {"measurement": "log EC50, OR2W1", "setting": "[2]; [6]", "value": "−4.657"}
    ]},
    {"smiles": "CCCCCCCCS", "note": "[Octanethiol]", "values": [
      {"measurement": "EC50", "setting": "[1]; [10]", "value": 594, "unit": "µM"},
      {"measurement": "EC50", "setting": "[2]; [7]", "value": 92.7, "unit": "µM"}
    ]}
  ]
}
